Read-outs that look alike come from different tables or passages of the source.
What was measured:
[1] = tested on: T1, rAaChE1 (recombinant AaChE1, A. americanum cholinesterase 1); assay: cholinesterase assay, absorbance at […] nm, microplate; format: biochemical, Amblyomma americanum; details: culture supernatant of baculovirus-infected Sf21 cells
T1 construct: pBlueBac4.5/V5-His in Sf21 cells (reverse primer appears to carry the native stop codon); unpurified culture supernatant

[2] = molecular target: T1, rAaChE1 (recombinant AaChE1, A. americanum cholinesterase 1); assay: cholinesterase inhibition assay, absorbance at […] nm; format: biochemical, Amblyomma americanum; design: unit not given here; details: 15 min preincubation, culture supernatant

Row | Compound | (IC50) ^2 / rAaChE1 (ATCh Substrate) ([2]; covalent) | further results
1 | CC(=O)SCC[N+](C)(C)C [ATCh, acetylthiocholine] |  | Km ([1]; read-out: KM): 6.39 µM
2 | C=CC[N+](C)(C)c1ccc(CCC(=O)CCc2ccc([N+](C)(C)CC=C)cc2)cc1 [BW284c51, 1,5-Bis(4-allyldimethylammoniumphenyl)pentan-3-one dibromide] |  | (IC50) ^2 / rAaChE1 (ATCh Substrate) [2]: 2.96 × 10^−7 (2.50–3.50 × 10^−7)
3 | CCCC(=O)SCC[N+](C)(C)C [BuTCh, butyrylthiocholine] |  | Km ([1]; read-out: apparent KM): 14.2 µM
4 | CCOP(=O)(OCC)Oc1ccc2c(C)c(Cl)c(=O)oc2c1 [Coroxon] | 2.35 × 10^−11 (1.93–2.84 × 10^−11) | 
5 | CNC(=O)Oc1ccc2c(c1)[C@]1(C)CCN(C)[C@@H]1N2C [Eserine] | 2.28 × 10^−10 (2.37–3.26 × 10^−10) | 
6 | CC(C)NP(=O)(NC(C)C)OP(=O)(NC(C)C)NC(C)C [Iso-OMPA] | 3.48 × 10^−05 (2.76–4.43 × 10^−5) | 
7 | CCOC(=O)CC(SP(=O)(OC)OC)C(=O)OCC (stereo not shown) [Malaoxon] | 2.77 × 10^−8 (2.45–3.14 × 10^−8) | 
